Common to all, as to experiment: electrochemical aptamer-based sensor, square wave voltammetry
For assay [1], the system named is High-Gain Parent (RNA, aptamer) CUUGGUUUAGGUAAUGAG
As to conditions: Na+ 100 mM, Mg2+ 5 mM; 20 mM Tris, pH 7.4; surface-immobilised aptamer; apparent.

Assay [2] concerns 7UG (RNA, aptamer) CUUGGUGUAGGUAAUGAG
As to conditions: Na+ 100 mM, Mg2+ 5 mM; 20 mM Tris, pH 7.4; surface-immobilised aptamer; no quantitative binding, -9% signal change at 30 µM tobramycin.

For assay [3], the system named is 7UC (RNA, aptamer) CUUGGUCUAGGUAAUGAG
As to conditions: Na+ 100 mM, Mg2+ 5 mM; 20 mM Tris, pH 7.4; surface-immobilised aptamer; no quantitative binding, 3% signal change at 30 µM tobramycin.

The subject of assay [4] is 16GU (RNA, aptamer) CUUGGUUUAGGUAAUUAG
As to conditions: Na+ 100 mM, Mg2+ 5 mM; 20 mM Tris, pH 7.4; surface-immobilised aptamer; apparent.

In assay [5] the test system is 3-UAC (RNA, aptamer) CUUGGUUUAGGUAAUGAGUAC
As to conditions: Na+ 100 mM, Mg2+ 5 mM; 20 mM Tris, pH 7.4; surface-immobilised aptamer; apparent.

Regarding `NC[C@H]1O[C@H](O[C@H]2[C@H](O)[C@@H](O[C@H]3O[C@H](CO)[C@@H](O)[C@H](N)[C@H]3O)[C@H](N)C[C@@H]2N)[C@H](N)C[C@@H]1O`, the KD in assay [1] was determined as 80 ± 10 nM. Besides, the binding entry in assay [2] and in assay [3] was “no” each time. Besides, the Kd in assay [4] stood at 3000 ± 400 nM; in assay [5], 170 ± 30 nM.
